According to the NIST ThermoML archive (doi:10.1016/j.jct.2019.05.021):
Numbers after ± are expanded uncertainties.

Assay: xn = mol fraction of the nth substance listed
Conditions: 100 kPa, Liquid; for viscosity: Falling or rolling sphere viscometry; for mass density: Vibrating tube method

CCCCCCCCCCCCCC(=O)OC [methyl tetradecanoate] + CC1CCCCC1
Conditions	mass density [kg/m3]	viscosity [mPa·s]
293.15 K, x2 = 0	867.17 ± 1.8	4.557 ± 0.1
293.15 K, x2 = 0.1	862.3 ± 1.8	4.065 ± 0.09
293.15 K, x2 = 0.2	856.82 ± 1.7	3.591 ± 0.079
293.15 K, x2 = 0.3	850.69 ± 1.7	3.141 ± 0.069
293.15 K, x2 = 0.4003	843.72 ± 1.7	2.706 ± 0.059
293.15 K, x2 = 0.5001	835.76 ± 1.7	2.304 ± 0.05
293.15 K, x2 = 0.6	826.55 ± 1.7	1.925 ± 0.042
293.15 K, x2 = 0.6999	815.89 ± 1.6	1.578 ± 0.034
293.15 K, x2 = 0.8	803.17 ± 1.6	1.267 ± 0.027
293.15 K, x2 = 0.8999	787.98 ± 1.6	0.982 ± 0.021
298.15 K, x2 = 0	863.35 ± 1.8	3.979 ± 0.088
298.15 K, x2 = 0.1	858.46 ± 1.7	3.575 ± 0.079
298.15 K, x2 = 0.2	853 ± 1.7	3.176 ± 0.07
298.15 K, x2 = 0.3	846.86 ± 1.7	2.792 ± 0.061
298.15 K, x2 = 0.4003	839.87 ± 1.7	2.424 ± 0.053
298.15 K, x2 = 0.5001	831.9 ± 1.7	2.072 ± 0.045
298.15 K, x2 = 0.6	822.64 ± 1.7	1.743 ± 0.038
298.15 K, x2 = 0.6999	811.92 ± 1.6	1.438 ± 0.031
298.15 K, x2 = 0.8	799.13 ± 1.6	1.163 ± 0.025
298.15 K, x2 = 0.8999	783.83 ± 1.6	0.91 ± 0.02
303.15 K, x2 = 0	859.54 ± 1.8	3.519 ± 0.078
303.15 K, x2 = 0.1	854.64 ± 1.7	3.179 ± 0.07
303.15 K, x2 = 0.2	849.17 ± 1.7	2.838 ± 0.062
303.15 K, x2 = 0.3	843.02 ± 1.7	2.507 ± 0.055
303.15 K, x2 = 0.4003	836.01 ± 1.7	2.19 ± 0.048
303.15 K, x2 = 0.5001	828.01 ± 1.7	1.884 ± 0.041
303.15 K, x2 = 0.6	818.71 ± 1.6	1.6 ± 0.035
303.15 K, x2 = 0.6999	807.93 ± 1.6	1.327 ± 0.029
303.15 K, x2 = 0.8	795.07 ± 1.6	1.078 ± 0.023
303.15 K, x2 = 0.8999	779.65 ± 1.6	0.848 ± 0.018
308.15 K, x2 = 0	855.74 ± 1.7	3.093 ± 0.069
308.15 K, x2 = 0.1	850.83 ± 1.7	2.803 ± 0.062
308.15 K, x2 = 0.2	845.36 ± 1.7	2.515 ± 0.055
308.15 K, x2 = 0.3	839.19 ± 1.7	2.234 ± 0.049
308.15 K, x2 = 0.4003	832.16 ± 1.7	1.962 ± 0.043
308.15 K, x2 = 0.5001	824.11 ± 1.7	1.695 ± 0.037
308.15 K, x2 = 0.6	814.78 ± 1.6	1.445 ± 0.031
308.15 K, x2 = 0.6999	803.92 ± 1.6	1.205 ± 0.026
308.15 K, x2 = 0.8	791 ± 1.6	0.987 ± 0.021
308.15 K, x2 = 0.8999	775.46 ± 1.6	0.782 ± 0.017
313.15 K, x2 = 0	851.94 ± 1.7	2.797 ± 0.062
313.15 K, x2 = 0.1	847.02 ± 1.7	2.552 ± 0.056
313.15 K, x2 = 0.2	841.53 ± 1.7	2.302 ± 0.051
313.15 K, x2 = 0.3	835.34 ± 1.7	2.054 ± 0.045
313.15 K, x2 = 0.4003	828.29 ± 1.7	1.803 ± 0.039
313.15 K, x2 = 0.5001	820.21 ± 1.6	1.564 ± 0.034
313.15 K, x2 = 0.6	810.83 ± 1.6	1.336 ± 0.029
313.15 K, x2 = 0.6999	799.9 ± 1.6	1.121 ± 0.024
313.15 K, x2 = 0.8	786.91 ± 1.6	0.918 ± 0.02
313.15 K, x2 = 0.8999	771.26 ± 1.6	0.735 ± 0.016
318.15 K, x2 = 0	848.14 ± 1.7	2.544 ± 0.056
318.15 K, x2 = 0.1	843.22 ± 1.7	2.325 ± 0.051
318.15 K, x2 = 0.2	837.71 ± 1.7	2.101 ± 0.046
318.15 K, x2 = 0.3	831.5 ± 1.7	1.879 ± 0.041
318.15 K, x2 = 0.4003	824.42 ± 1.7	1.661 ± 0.036
318.15 K, x2 = 0.5001	816.31 ± 1.6	1.45 ± 0.031
318.15 K, x2 = 0.6	806.88 ± 1.6	1.249 ± 0.027
318.15 K, x2 = 0.6999	795.9 ± 1.6	1.052 ± 0.023
318.15 K, x2 = 0.8	782.82 ± 1.6	0.868 ± 0.019
318.15 K, x2 = 0.8999	767.04 ± 1.5	0.695 ± 0.015
323.15 K, x2 = 0	844.34 ± 1.7	2.308 ± 0.051
323.15 K, x2 = 0.1	839.41 ± 1.7	2.115 ± 0.047
323.15 K, x2 = 0.2	833.87 ± 1.7	1.92 ± 0.042
323.15 K, x2 = 0.3	827.63 ± 1.7	1.728 ± 0.038
323.15 K, x2 = 0.4003	820.53 ± 1.7	1.534 ± 0.033
323.15 K, x2 = 0.5001	812.38 ± 1.6	1.345 ± 0.029
323.15 K, x2 = 0.6	802.92 ± 1.6	1.161 ± 0.025
323.15 K, x2 = 0.6999	791.88 ± 1.6	0.985 ± 0.021
323.15 K, x2 = 0.8	778.71 ± 1.6	0.819 ± 0.018
323.15 K, x2 = 0.8999	762.81 ± 1.5	0.658 ± 0.014
